These are literature values, as cited in patent publication US10278390B2, “Antimicrobial transparent plastic in the form of film or extruded shape” (priority 2016, dated 2019).

This data set has as its system bacteria.

As for `[Ag+]` [silver ions], the “concentrations at which the metabolism of bacteria is adversely affected” value was 0.01 to 0.1 mg/L.
